Results published in patent publication US20090221624A1, “4-AMINOQUINOLINE COMPOUNDS FOR TREATING VIRUS-RELATED CONDITIONS” (priority 2005, published 2009).

How the values were obtained:
YFV (YF-hRuPac cells) = assay: microbe, parasite or virus in culture; type: cell-based, yellow fever virus; details: for inhibition at 25 µM / EC50: Yellow fever virus; for inhibition at 25 µM: 24 h, read-out: YFV Inh; for EC50: read-out: YFV EC50
SINV (SR19-F-luc cells) = assay: SINV antiviral activity, SR19-F-luc cells, Firefly luciferase; type: cell-based; details: Sindbis virus; for inhibition at 25 µM: primary screening, 25 μM final concentration, 24 hours, percent inhibition of viral replication, read-out: SINV Inh; for EC50: secondary screening, SR19-F-luc cells
RSV minigenome = assay: RSV minigenome-dependent β-galactosidase expression assay (RSV β-Gal); type: cell-based, respiratory syncytial virus; details: for EC50 / inhibition at 25 µM: human respiratory syncytial virus; for EC50: Secondary Data, RSV, read-out: RSV EC50; for inhibition at 25 µM: primary screening, 25 μM final concentration, 24 hours, percent inhibition of viral replication, read-out: RSV Inh; for RSV TI: therapeutic index CC50/EC50, RSV
WNV (WN-hRuPac cells) = assay: WNV antiviral activity, WN-hRuPac cells, Renilla luciferase; type: cell-based, West Nile virus; details: for EC50 / inhibition at 25 µM: West Nile virus; for EC50: Secondary Data, WNV, read-out: WNV EC50; for inhibition at 25 µM: primary screening, 25 μM final concentration, 24 hours, percent inhibition of viral replication, read-out: WNV Inh; for WNV TI: therapeutic index CC50/EC50, WNV
EBOV minigenome = assay: microbe, parasite or virus in culture; type: cell-based, Ebola virus; details: Zaire ebolavirus; for inhibition at 25 µM: 24 h, read-out: EBOV Inh; for EC50: read-out: EBOV EC50
DNG (D2-hRuPac cells) = assay: DNG antiviral activity, D2-hRuPac cells, Renilla luciferase; type: cell-based, Dengue fever virus; details: Dengue virus, secondary screening
[1] = system: HCV replicon (Clone A cells, Huh7, subgenomic hepatits C virus RNA); assay: HCV Neo screening assay (HCV replicon, NPTII ELISA); type: cell-based, hepatitis C virus; details: for inhibition at 25 µM / EC50: Hepatitis C virus, Huh-7; for inhibition at 25 µM: primary screening, 25 μM final concentration, 24 hours, percent inhibition of viral replication, read-out: HCV Inh; for EC50: Secondary Data, HCV; for HCV TI: therapeutic index CC50/EC50, HCV

Row | Compound | YFV TI (YFV (YF-hRuPac cells)) | inhibition at 25 µM (YFV (YF-hRuPac cells)) [%] | EC50 (YFV (YF-hRuPac cells)) [µM] | inhibition at 25 µM (SINV (SR19-F-luc cells)) [%] | EC50 (SINV (SR19-F-luc cells)) [µM] | EC50 (RSV minigenome) [µM] | inhibition at 25 µM (RSV minigenome) [%] | RSV TI (RSV minigenome) | EC50 (WNV (WN-hRuPac cells)) [µM] | inhibition at 25 µM (WNV (WN-hRuPac cells)) [%] | WNV TI (WNV (WN-hRuPac cells)) | inhibition at 25 µM (EBOV minigenome) [%] | CC50 (in vitro; DNG CC50) [µM] | CC50 (in vitro; EBOV CC50) [µM] | CC50 (in vitro; RSV CC50) [µM] | CC50 (in vitro; SINV CC50) [µM] | CC50 (in vitro; WNV CC50) [µM] | CC50 (in vitro; YFV CC50) [µM] | EC50 (DNG (D2-hRuPac cells)) [µM] | inhibition at 25 µM [1] [%] | further results
1 | Cc1ccc2nc(C)cc(N3CCC(C)CC3)c2c1 [Compound 15] | 1.57 | 37.5 | 46.4 | 72 | 5.58 | 7.34 | 72.6 | 9.94 | ≥ 75 | 55.9 | 0.97 | 49.2 | 72.9 | 72.9 | 72.9 | 72.9 | 72.9 | 72.9 | 71.9 | 45.1 | EC50 (EBOV minigenome): 71.1 µM; CC50 (in vitro; HCV CC50): 35.7 µM
2 | CCOc1ccc2nc(C)cc(Nc3ccc(OC)c(OC)c3)c2c1 [Compound 56] | 7.93 | 98.7 | 3.51 | 95.8 | 2.33 | 3.33 | 99 | 8.36 | 3.5 | 95.7 | 7.95 | 89.3 | 27.8 | 27.8 | 27.8 | 27.8 | 27.8 | 27.8 | 8.48 | 128 | EC50 (EBOV minigenome): 47.5 µM; CC50 (in vitro; HCV CC50): 6.69 µM; EC50 [1]: 4.56 µM; HCV TI [1]: 1.47
3 | COc1ccc2nc(C)cc(Nc3ccc(OCc4ccccc4Cl)cc3)c2c1 [Compound 43] | 18.48 | 100 | 1.41 | 99.7 | 4.08 | 2.24 | 100 | 11.63 | 5.45 | 99.9 | 4.78 | 98.7 | 26.1 | 26.1 | 26.1 | 26.1 | 26.1 | 26.1 | 1.65 | 95.4 | EC50 (EBOV minigenome): 75 µM; CC50 (in vitro; HCV CC50): 2.09 µM; EC50 [1]: 1.6 µM; HCV TI [1]: 1.31
4 | CCOC(=O)c1cnc2ccc(C)cc2c1NCc1ccco1 [Compound 39] | 8.95 | 96.6 | 3.01 | 71.9 | ≥ 75 | 1.47 | 91.6 | 18.33 | 5.46 | 102 | 4.94 | 64.1 | 26.9 | 26.9 | 26.9 | 26.9 | 26.9 | 26.9 | 7.1 | 22.4 | EC50 (EBOV minigenome): 7.22 µM; CC50 (in vitro; HCV CC50): ≥ 75 µM
5 | CCc1ccccc1Nc1cc(C)nc2c(OC)cccc12 [Compound 24] | 0.77 | 67.3 | ≥ 75 | 64.1 | 16.6 | 4.5 | 94.7 | 12.86 | 25.6 | 73.9 | 2.26 | 35.3 | 57.9 | 57.9 | 57.9 | 57.9 | 57.9 | 57.9 | 27.7 | 43.7 | EC50 (EBOV minigenome): 55.8 µM
6 | COC(=O)c1ccc(Nc2cc(C)nc3cc(Cl)ccc23)cc1 [Compound 14] | 5.82 | 54.6 | 9.23 | 56.7 | 17.6 | 36.9 | 48.4 | 1.46 | ≥ 75 | 51.6 | 0.72 | -19.5 | 53.7 | 53.7 | 53.7 | 53.7 | 53.7 | 53.7 | 54.3 | 81.2 | EC50 (EBOV minigenome): 65.6 µM; CC50 (in vitro; HCV CC50): ≥ 75 µM; EC50 [1]: 1.3 µM; HCV TI [1]: 57.69
7 | COC(=O)c1ccc2nc(C)cc(Nc3cccc(O)c3)c2c1 [Compound 73] | 1.79 | 51.8 | 40.3 | 80.8 | 5.99 | 28.9 | 63.1 | 2.5 | 25.8 | 31.5 | 2.8 | 62.1 | 72.3 | 72.3 | 72.3 | 72.3 | 72.3 | 72.3 | 16.8 | 89.5 | CC50 (in vitro; HCV CC50): 35.2 µM; EC50 [1]: 2.32 µM; HCV TI [1]: 15.17
8 | CCOC(=O)c1cnc2ccc(F)cc2c1Nc1ccc(S(=O)(=O)Nc2nc(C)cc(C)n2)cc1 [Compound 74] | 7.75 | 93.5 | 9.68 | 19.4 | ≥ 75 | ≥ 75 | 26.6 |  | 9.72 | 90.5 | 7.72 | 76.1 | ≥ 75 | ≥ 75 | ≥ 75 | ≥ 75 | ≥ 75 | ≥ 75 | 4.08 | 39.4 | 
9 | CCOC(=O)c1cnc2ccc(F)cc2c1NCCCN(C)C [Compound 66] | 0.86 | 11.4 | ≥ 75 | 14.9 | 9.53 | 44.8 | 17.6 | 1.44 | 22.9 | 40.8 | 2.82 | 84.1 | 64.6 | 64.6 | 64.6 | 64.6 | 64.6 | 64.6 | 51.4 | 39.6 | EC50 (EBOV minigenome): 14.1 µM
10 | COc1cccc2c(Nc3ccc4c(c3)OCCO4)cc(C)nc12 [Compound 22] | 0.76 | 29.9 | ≥ 75 | -22.7 | 72.3 | 3 | 75.1 | 19.08 | 22.4 | 48.8 | 2.56 | 72 | 57.2 | 57.2 | 57.2 | 57.2 | 57.2 | 57.2 | 35.6 | 55.1 | EC50 (EBOV minigenome): 5.31 µM; CC50 (in vitro; HCV CC50): 13.7 µM; EC50 [1]: 18.1 µM; HCV TI [1]: 0.75
11 | COc1cccc2c(Nc3cccc([N+](=O)[O-])c3)cc(C)nc12 [Compound 25] | 6.25 | 100 | 3.67 | 99.8 | 2.13 | 4.73 | 99.9 | 4.85 | 3.18 | 100 | 7.22 | 99.4 | 22.9 | 22.9 | 22.9 | 22.9 | 22.9 | 22.9 | 3.89 | 159 | EC50 (EBOV minigenome): 75 µM; CC50 (in vitro; HCV CC50): 12.7 µM; EC50 [1]: 4.85 µM; HCV TI [1]: 2.62
12 | COC(=O)c1ccc(Nc2c3c(nc4ccccc24)CCC3)cc1 [Compound 8] | 2.91 | 66.8 | 25.8 | 34.9 | 24.2 | 9.7 | 75.5 | 7.73 | 59.1 | 49 | 1.27 | 4.74 | ≥ 75 | ≥ 75 | ≥ 75 | ≥ 75 | ≥ 75 | ≥ 75 | 61.5 | 98.9 | EC50 (EBOV minigenome): 54.5 µM; CC50 (in vitro; HCV CC50): 71.6 µM; EC50 [1]: 0.13 µM; HCV TI [1]: 550.77
